# According to a melting point compilation (Tetko et al.; mined from patent text by program, amines drawn as free bases though some values may be those of a salt):
row,Compound,melting point [°C]
1,CC(=O)OC1CSC(Oc2ccccc2C(C)=O)C(OC(C)=O)C1OC(C)=O (stereo unspecified),112
2,CCC#CC(C)(C)NC(=O)C(Br)CC (stereo unspecified),53 to 55
3,CC(C)CN1C(=O)CN=C(N2CCN(C)CC2)c2ccccc21,134 to 136
4,CCCOc1ccc(C=CC(=O)c2c(OC)cc(OC)cc2OC(=O)CC)cc1,102
5,COc1ccc(-c2coc3cc(OCC(O)CN4CCNCC4)ccc3c2=O)cc1OC (stereo unspecified),84 to 85
6,COCOc1ccc(C(=O)c2ccc(OCc3nc(-c4ccccc4)oc3C)cc2)c(O)c1,105 to 107
7,N#Cc1ccccc1-c1ccc(C(F)(F)F)c(Cl)c1,138 to 140
8,CCOC(=O)c1cnc2sc(C(=O)Cc3ccccc3)c(C)c2c1O,208 to 214
9,N#CC1c2cc(OCc3ccccc3)cc(OCc3ccccc3)c2C=CN1C(=O)c1ccccc1 (stereo unspecified),123 to 125
10,COc1ccc(Nc2nc(O)c3sccc3n2)c(C)c1,246 to 248
11,CCn1c(=O)c(C(=O)O)nc2ccc(F)cc21,162 to 164
12,CNCCOc1ccc(C(=C(CCO)c2ccccc2)c2ccccc2)cc1,134 to 139
13,O=CC1(Nc2ccccc2)CCN(Cc2ccccc2)CC1,118 to 119
14,O=C(O)COc1c(-c2ccccc2)cc([N+](=O)[O-])cc1-c1ccccc1,154 to 156
15,Nc1nc(NS(=O)(=O)c2ccccc2[N+](=O)[O-])n[nH]1,255 to 256
16,O=C1NCC(Cc2cccc(Cl)c2)O1 (stereo unspecified),113 to 114
17,CCNC(=O)c1cccc(-c2c(CC(=O)Nc3ccc(Cl)cc3C(F)(F)F)c(=O)oc3cc(Cl)c(C)cc23)c1,220 to 222
18,CC(=O)N1c2ccccc2Sc2ccccc21,210 to 211
19,COc1cc2c(Nc3cccc(Br)c3)c(C#N)cnc2c(OC)c1OC,211 to 213
20,CCc1nc2c(n1Cc1ccc(-c3ccccc3)cc1)C(=O)N(C)CN2c1ccc(Cl)cc1Cl,216 to 217
21,OCC1CC(O)C(n2cnc3cc(Cl)c(Cl)cc32)C1 (stereo unspecified),244 to 245
22,CC(OP(=O)(c1ccccc1)c1ccccc1)c1ccccc1C(C)OP(=O)(c1ccccc1)c1ccccc1 (stereo unspecified),147 to 148
23,Nc1ncc(-c2ccc(=O)[nH]n2)c(-c2ccco2)n1,262 to 268
24,Nc1cc(C(=O)O)cc(S(N)(=O)=O)c1-c1ccccc1,232 to 237
25,COP(=O)(OC)C1OC(=O)c2ccccc21 (stereo unspecified),95 to 96.5
26,CC1CC2=CC(=O)CCC2C2C(F)CC3(C)C(OCc4ccc(S(N)(=O)=O)cc4)CCC3C12 (stereo unspecified),232

row,Compound,melting point [°C]
1,CC(=O)Nc1cc2c(cc1Br)CCC2,138
2,CC(=O)NNc1nc(C(F)(F)F)nc(-c2ccc(F)cc2)c1-c1ccccc1,149 to 153
3,CCOC(=O)C1=NOC2(CCC(C(C)(C)CC)CC2)C1 (stereo unspecified),82 to 87
4,COCn1c(-c2nc3c(OC)ccc(N4CCOCC4)c3s2)nc2ccc(N3CCC(O)CC3)nc21,120 to 130
5,CCCCc1nc(C(C)(C)O)c(C(=O)OCC)n1Cc1ccc(-c2ccccc2C(=O)OC(C)(C)C)cc1,92 to 93
6,O=[N+]([O-])c1cccc2[nH]c3c(c12)CCCCCC3,189 to 191
7,FC(F)(F)c1ccc(NC(=S)Nc2ncccc2OCc2ccccc2)cc1,165 to 167
8,CN(Cc1ccccc1)c1cc(Oc2cccc(C(F)(F)F)c2)nc(C(=O)Nc2ccccc2)c1,111 to 114
9,CCOC(=O)Cc1ccc(Nc2ncc3c(n2)N(C)C(=O)N(c2c(Cl)cccc2Cl)C3)cc1,211 to 212
10,O=C(O)Cc1ccc(C(=O)c2ccc(Cl)cc2)s1,165
11,NC(=O)c1c(Cl)c(-c2ccccc2)n2c1CN(C(=O)CCC1CCCC1)CC2,172 to 174
12,CC(=O)Nc1cccc(-c2nc(=O)c3ccccc3s2)c1,241 to 242
13,CC(=O)c1cc(F)c(OCCOc2ccc3ccccc3c2)c(F)c1,108 to 110
14,COC(=O)c1ccc(C(=O)Nc2ccc3c(c2)C(C)(C)CCC3(C)C)cc1,211
15,CCCCc1c2c(nn1C(C)(C)C)c(N)nc1ccccc12,222 to 223
16,O=C1CCC(c2ccc3c(c2)CCC2(CCN(C4CCC4)CC2)O3)=NN1,242 to 244
17,COc1ncccc1-c1[nH]c2ccccc2c1C1CCNCC1,110 to 115
18,O=C1CCC(c2ccc(Cl)c(Cl)c2)c2ccccc21 (stereo unspecified),99 to 101
19,Oc1ccc(-c2nnc(-c3ccc(Oc4ccccc4)cc3)o2)cc1,204 to 206
20,COc1cncnc1N1CCN(CCCc2c[nH]c3ccc(CNC(C)=O)cc23)CC1,169 to 174
21,COC(=O)c1ccc(-n2cc3ccccc3n2)cc1,80 to 81
22,CCCNC(=O)c1cnc2c(c1O)CN(C(=O)OCC)CC2,199 to 201
23,CC1(O)CC(=O)OC(C=Cc2cccc(OCc3ccccc3)c2)C1 (stereo unspecified),122 to 124
24,Cc1cc2ccccn2c1C(=O)c1ccc([N+](=O)[O-])cc1,149
25,Fc1cc(CC2(Cc3ccnc(F)c3)c3ccccc3-c3ncncc32)ccn1,171 to 174
26,CCOC(=O)c1cc(=O)c2c(OCC(O)COc3cccc(O)c3C(C)=O)cccc2o1 (stereo unspecified),145 to 148

row,Compound,melting point [°C]
1,CCCCCCCCCCCCc1nnn(C(C)C(=O)Nc2c(OC)cc(OC)cc2OC)n1 (stereo unspecified),155 to 157
2,COc1c(F)c(F)c(N)c2c(=O)c(C(=O)O)cn(C3CC3)c12,291 to 292
3,C#CCn1cc(C#N)c(CO)c1,95
4,CCOC(=O)C(=O)CC(=O)C=Cc1ccc(O)c(OC)c1,97 to 98
5,Nc1nc2c(s1)CCN(CCC=Cc1ccccc1)CC2,157 to 158
6,Cc1[nH]cc2c(=O)n(-c3ccc(Cl)cc3)nc-2c1-c1cccc(NCc2cccnc2)c1,284 to 287
7,CCCCCCCCCCc1ccc2ccc(OC)cc2c1,29.9 to 30.8
8,O=C(Oc1ccccc1)c1n[nH]c2c(=O)[nH]c3cc(Cl)ccc3c(=O)c12,265
9,Nn1c(C(F)(F)F)cc(-c2ccc(C(F)(F)F)cc2)cc1=S,156
10,O=Cc1nn(-c2c(Cl)cc(C(F)(F)F)cc2Cl)cc1SC(F)(F)F,79 to 81
11,O=c1cnc2c([N+](=O)[O-])c(Cl)c(Cl)cc2[nH]1,330 to 332
12,O=C1N(Cc2ccncc2)Cc2cccnc2N1c1cccc([N+](=O)[O-])c1,169 to 170
13,Cc1cccc(C(=O)N(NC(C)C)C(C)(C)C)c1,107 to 109
14,CN(CC(=O)O)C(=O)CCS,157 to 158
15,Clc1ncnc2c1ncn2C1CCCCO1 (stereo unspecified),70 to 71
16,CN1CC(C)(C)c2ccc(NC(=O)/C=C/c3ccc(C(C)(C)C)cc3)cc21,90 to 101
17,Cc1[nH]c2ccc(S(=O)(=O)c3ccccc3)cc2c1CCNC(=O)OC(C)(C)C,210 to 213
18,COc1nc2cc(Cl)ccc2nc1N1CCN(C)CC1,99.9 to 102
19,C/C(=C\c1ccc(C(=O)O)cc1)c1ccc2c(c1)C(C)(C)C(=O)CC2(C)C,260 to 261
20,Cc1ccc2c(-c3cc(C(C)(C)C)c(O)c(C(C)(C)C)c3)n[nH]c2n1,239 to 240
21,Cc1ccc2c3c(ccc2n1)OC[C@H](CN1CCN(c2cccc(Cl)c2)CC1)O3,110 to 112
22,COC1(c2cc(F)cc(Sc3ccc4c(c3)SCC(=O)N4C)c2)CCOCC1,131 to 133
23,Nc1cncc(O)c1CCCOc1cccnc1Oc1cccc(Cl)c1,75 to 90
24,COc1ccc(S(=O)(=O)n2ccc3ccnc(-c4ccc(Cl)cc4)c32)cc1,126 to 128
25,CCCCCCCN(CCCCCSc1nc(-c2ccccc2)c(-c2ccccc2)[nH]1)C(=S)Nc1ccc(F)cc1F,116 to 118
26,COC(=O)CCS(=O)(=O)c1ccc(NC(C)=O)cc1,156 to 158

row,Compound,melting point [°C]
1,CCC12OC1C(=O)C(Nc1ncnc3cc(OC)c(OC)cc13)=CC2=O (stereo unspecified),202 to 204
2,COc1ccc(S(=O)(=O)n2ccc3ccnc(N(C)C)c32)cc1,155 to 158
3,CC(=O)OC[C@H]1O[C@@H]2[C@@H](Sc3ccc(Cl)cc3N2C)[C@@H](OC(C)=O)[C@@H]1OC(C)=O,217 to 218
4,Nc1ccc(-c2scc3c2OCCO3)cc1,98.5 to 99
5,CCN(CC)C(=O)OC1c2ccccc2C(=O)N1c1ccc2ccc(Cl)nc2n1 (stereo unspecified),142 to 144
6,CC(C)(C)NNC(=O)OC(C)(C)C,69 to 71
7,CC(C)C(=O)NCc1ccc(NC(=O)/C=C/c2cnn(C)c2-c2ccc(F)cc2)cc1,258 to 259
8,CC(=S)N(C)Cc1ccc(F)cc1,99 to 104
9,COc1ccc2nc(Cl)c(C#N)cc2c1,201 to 202
10,O=C1CCC(N2C(=O)c3cccc(CNC(=O)c4ccc(Cl)c(Cl)c4)c3C2=O)C(=O)N1 (stereo unspecified),161 to 163
11,COc1cc2c(cc1OC)C(CBr)OCCC2 (stereo unspecified),44 to 45
12,CS(=O)(=O)c1ccc(-c2cc(=O)n(C3CCCCC3)nc2-c2ccc(F)cc2)cc1,86 to 90
13,CCNC(=O)c1ccccc1Nc1nc(Nc2c(OC)ccc3c2CC(=O)N(CC)CC3)ncc1Cl,117 to 141
14,CC(C)(C)OC(=O)c1ccccc1CNC(=O)C1Cc2ccccc2N1S(=O)(=O)c1ccc(-c2cccc(C(F)(F)F)c2)cc1 (stereo unspecified),68
15,CCC(=O)c1cc2cc(OC)ccc2[nH]1,170 to 172
16,COc1cc2c(cc1C)OC1(CC2(C)C)CC(C)(C)c2cc(OCC(=O)O)c(C)cc2O1 (stereo unspecified),195 to 197
17,CC(C)C1(C)N=C(c2ncc(C3OCCO3)cc2C(=O)O)NC1=O (stereo unspecified),156
18,Nc1ncc(CN2CCN(c3ccc(Cl)cc3)CC2)c(N)n1,296 to 298
19,CCCCCCCCCCC1CCCC1C(=O)Nc1cccc2ncccc12 (stereo unspecified),75
20,CCN(CC)CCN1C(=O)Nc2ncccc2C1c1ccccc1 (stereo unspecified),160 to 162
21,CNc1ccc(C2CC(=O)N(C)C2C(O)c2ccc(-c3ccccc3)s2)cc1 (stereo unspecified),212
22,COc1ccc(CSCC(C)C(=O)O)cc1 (stereo unspecified),74 to 82
23,O=C(CCCCCCOc1ccc(OCc2ccccc2)cc1)C(F)(F)F,82 to 83
